In US20240018161A1, “MODULATORS OF CYSTIC FIBROSIS TRANSMEMBRANE CONDUCTANCE REGULATOR” (VERTEX PHARMACEUTICALS INCORPORATED, priority 2020, published 2024):
Like-named read-outs stand apart in the source and are kept apart here.

Molecular target: CFTR-mediated chloride transport in human intestinal epithelial enteroid cells (Homo sapiens, UniProt P13569)
Test: Membrane potential dye, Enteroid Assay A
Format: cell-based
Details: for EC50: read-out: Ent. A EC50
Summary of the method: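 Membrane potential dye (20 μM methyl oxonol, with 30 μM CaCCinh-A01 and 30 μM Chicago Sky Blue) loaded 25 min at room temperature into ROCK-inhibitor-seeded human enteroid cells. Chloride-free stimulation buffer triggered transport, followed by 15 min fluorescence. % Activity relative to 3 μM/3 μM/300 nM triple-combination control.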

[1] = enteroid cells incubated with test compound 18-24 hours, acute 10 μM forskolin and 300 nM N-[2,4-bis(1,1-dimethylethyl)-5-hydroxyphenyl]-1,4-dihydro-4-oxoquinoline-3-carboxamide
[2] = percentage of chloride transport of triple combination control (3 μM N-[(6-amino-2-pyridyl)sulfonyl]-6-(3-fluoro-5-isobutoxy-phenyl)-2-[(4S)-2,2,4-trimethylpyrrolidin-1-yl]pyridine-3-carboxamide based)

CFTR-mediated chloride transport in human intestinal epithelial enteroid cells, sequence (P13569 with tags, fused parts or gaps DEL508-508): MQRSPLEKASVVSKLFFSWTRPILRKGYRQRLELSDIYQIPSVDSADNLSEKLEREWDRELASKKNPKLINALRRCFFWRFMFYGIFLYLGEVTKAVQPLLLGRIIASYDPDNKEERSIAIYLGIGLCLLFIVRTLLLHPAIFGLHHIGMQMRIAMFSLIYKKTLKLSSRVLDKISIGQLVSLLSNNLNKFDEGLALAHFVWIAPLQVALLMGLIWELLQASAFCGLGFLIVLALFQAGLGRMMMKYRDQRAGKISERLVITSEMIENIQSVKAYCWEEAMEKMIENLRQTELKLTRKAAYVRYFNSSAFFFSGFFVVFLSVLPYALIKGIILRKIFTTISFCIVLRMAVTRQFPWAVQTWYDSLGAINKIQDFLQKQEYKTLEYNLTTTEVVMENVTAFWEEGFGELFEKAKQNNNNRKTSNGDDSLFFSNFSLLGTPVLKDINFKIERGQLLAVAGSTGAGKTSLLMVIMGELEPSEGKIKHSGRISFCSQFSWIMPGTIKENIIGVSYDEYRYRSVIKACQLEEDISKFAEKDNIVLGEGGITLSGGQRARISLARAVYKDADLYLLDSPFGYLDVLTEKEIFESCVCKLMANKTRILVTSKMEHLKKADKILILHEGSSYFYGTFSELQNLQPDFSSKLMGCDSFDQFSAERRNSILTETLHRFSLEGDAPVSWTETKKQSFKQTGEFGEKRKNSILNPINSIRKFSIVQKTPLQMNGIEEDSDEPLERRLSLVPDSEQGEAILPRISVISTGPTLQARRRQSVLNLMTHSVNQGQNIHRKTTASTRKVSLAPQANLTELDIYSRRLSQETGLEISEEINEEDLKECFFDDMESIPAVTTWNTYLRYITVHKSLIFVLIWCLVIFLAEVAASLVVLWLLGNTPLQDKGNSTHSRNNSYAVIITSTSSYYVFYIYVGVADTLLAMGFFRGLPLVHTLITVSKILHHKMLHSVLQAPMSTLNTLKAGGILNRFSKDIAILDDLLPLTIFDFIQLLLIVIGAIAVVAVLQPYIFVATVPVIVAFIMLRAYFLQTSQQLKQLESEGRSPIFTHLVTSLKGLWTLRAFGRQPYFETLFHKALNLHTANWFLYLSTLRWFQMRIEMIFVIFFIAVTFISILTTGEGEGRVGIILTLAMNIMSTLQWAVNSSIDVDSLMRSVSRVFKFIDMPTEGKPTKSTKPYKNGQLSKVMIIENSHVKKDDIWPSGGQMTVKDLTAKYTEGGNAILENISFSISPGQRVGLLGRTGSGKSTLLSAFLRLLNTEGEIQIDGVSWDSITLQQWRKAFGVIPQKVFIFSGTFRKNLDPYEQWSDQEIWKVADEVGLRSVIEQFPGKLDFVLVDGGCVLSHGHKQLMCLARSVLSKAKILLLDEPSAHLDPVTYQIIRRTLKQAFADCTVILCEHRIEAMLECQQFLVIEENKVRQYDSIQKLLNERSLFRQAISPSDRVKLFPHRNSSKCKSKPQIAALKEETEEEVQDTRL

| Compound | Ent. A Max Activity (%) (Enteroid Assay A) | EC50 (Enteroid Assay A) [nM] | EC50 [1] [nM] | Ent. A Max Activity (%) [2] |
| --- | --- | --- | --- | --- |
| CCOC(=O)C1CC1CN1CCN2C[C@@H](C1)Oc1cc(-c3c(C)cccc3C)nc(n1)NS(=O)(=O)c1cccc(c1)C2=O (stereo partly shown) [Compound 34] | +++ (+++ is >600%) | < 1000 | – | – |
| Cc1cccc(C)c1-c1cc2nc(n1)NS(=O)(=O)c1cccc(c1)C(=O)N1CCN(CC3CC3)C[C@H](C1)O2 [Compound 35, (16R)-18-(Cyclopropylmethyl)-12-(2,6-dimethylphenyl)-8,8-dioxo-15-oxa-8λ^6-thia-1,9,11,18,22-pentazatetracyclo[14.4.1.13,7.110,14]tricosa-3,5,7(23),10(22),11,13-hexaen-2-one] | – | – | < 1000 | +++ (+++ is >60%) |
| Cc1cccc(C)c1-c1cc2nc(n1)NS(=O)(=O)c1cccc(c1)C(=O)N1CCN(C3CCC(F)CC3)C[C@H](C1)O2 (stereo partly drawn) [Compound 40, (16R)-12-(2,6-Dimethylphenyl)-18-(4-fluorocyclohexyl)-15-oxa-8λ^6-thia-1,9,11,18,22-pentaazatetracyclo[14.4.1.13,7.110,14]tricosa-3(23),4,6,10,12,14(22)-hexaene-2,8,8-trione] | +++ (+++ is >600%) | < 1000 | – | – |
| Cc1cccc(C)c1-c1cc2nc(n1)NS(=O)(=O)c1cccc(c1)C(=O)N1CCN(C3CCC4(CC3)COC4)C[C@H](C1)O2 [Compound 41, (16R)-12-(2,6-Dimethylphenyl)-18-{2-oxaspiro[3.5]nonan-7-yl}-15-oxa-8λ^6-thia-1,9,11,18,22-pentaazatetracyclo[14.4.1.13,7.110,14]tricosa-3(23),4,6,10,12,14(22)-hexaene-2,8,8-trione] | +++ (+++ is >600%) | < 1000 | – | – |
| Cc1cccc(C)c1-c1cc2nc(n1)NS(=O)(=O)c1cccc(c1)C(=O)N1CCNCC(C1)O2 (stereo not shown) [Compound 42, 12-(2,6-Dimethylphenyl)-15-oxa-8λ^6-thia-1,9,11,18,22-pentaazatetracyclo[14.4.1.13,7.110,14]tricosa-3(23),4,6,10(22),11,13-hexaene-2,8,8-trione] | – | – | – | ++ (++ is 30-60%) |
| Cc1cccc(C)c1-c1cc2nc(n1)NS(=O)(=O)c1cccc(c1)C(=O)N1CCN(CC(C)C)CC(C1)O2 (stereo not shown) [Compound 44, 12-(2,6-Dimethylphenyl)-18-isobutyl-8,8-dioxo-15-oxa-8λ^6-thia-1,9,11,18,22-pentazatetracyclo[14.4.1.13,7.110,14]tricosa-3,5,7(23),10(22),11,13-hexaen-2-one] | – | – | < 1000 | +++ (+++ is >60%) |
| Cc1cccc(C)c1-c1cc2nc(n1)NS(=O)(=O)c1cccc(c1)C(=O)N1CCN(CCC(C)(C)C)CC(C1)O2 (stereo not shown) [Compound 45] | – | – | < 1000 | +++ (+++ is >60%) |
| Cc1cccc(C)c1-c1cc2nc(n1)NS(=O)(=O)c1cccc(c1)C(=O)N1CCN(C3CCC(F)(F)CC3)CC(C1)O2 (stereo not shown) [Compound 46] | +++ (+++ is >600%) | < 1000 | – | – |
| CNc1ccc(CN2CCN3CC(C2)Oc2cc(-c4c(C)cccc4C)nc(n2)NS(=O)(=O)c2cccc(c2)C3=O)cn1 (stereo not shown) [Compound 47] | – | – | 3000 to 30000 | +++ (+++ is >60%) |
| Cc1cccc(C)c1-c1cc2nc(n1)NS(=O)(=O)c1cccc(c1)C(=O)N1CCN(Cc3ccn[nH]3)CC(C1)O2 (stereo not shown) [Compound 48] | – | – | 3000 to 30000 | ++ (++ is 30-60%) |
| Cc1cccc(C)c1-c1cc2nc(n1)NS(=O)(=O)c1cccc(c1)C(=O)N1CCN(Cc3ccn(C)n3)CC(C1)O2 (stereo not shown) [Compound 49] | – | – | 3000 to 30000 | +++ (+++ is >60%) |
| Cc1cccc(C)c1-c1cc2nc(n1)NS(=O)(=O)c1cccc(c1)C(=O)N1CCN(Cc3cncn3C)CC(C1)O2 (stereo not shown) [Compound 51] | – | – | – | + (+ is <300%) |
| Cc1cccc(C)c1-c1cc2nc(n1)NS(=O)(=O)c1cccc(c1)C(=O)N1CCN(Cc3nccs3)CC(C1)O2 (stereo not shown) [Compound 52] | – | – | 1000 to 3000 | ++ (++ is 30-60%) |
| Cc1cccc(C)c1-c1cc2nc(n1)NS(=O)(=O)c1cccc(c1)C(=O)N1CCN(CC3CCCCC3)CC(C1)O2 (stereo not shown) [Compound 53] | – | – | < 1000 | ++ (++ is 30-60%) |
| Cc1cccc(C)c1-c1cc2nc(n1)NS(=O)(=O)c1cccc(c1)C(=O)N1CCN(Cc3ccccc3C#N)CC(C1)O2 (stereo not shown) [Compound 54] | – | – | < 1000 | +++ (+++ is >60%) |
| Cc1cccc(C)c1-c1cc2nc(n1)NS(=O)(=O)c1cccc(c1)C(=O)N1CCN(CC3CCOCC3)CC(C1)O2 (stereo not shown) [Compound 55] | – | – | 3000 to 30000 | +++ (+++ is >60%) |

| Compound | Ent. A Max Activity (%) (Enteroid Assay A) | EC50 (Enteroid Assay A) [nM] | EC50 [1] [nM] | Ent. A Max Activity (%) [2] |
| --- | --- | --- | --- | --- |
| Cc1cccc(C)c1-c1cc2nc(n1)NS(=O)(=O)c1cccc(c1)C(=O)N1CCN(CC3(C)COC3)CC(C1)O2 (stereo not shown) [Compound 56] | – | – | 3000 to 30000 | ++ (++ is 30-60%) |
| Cc1cccc(C)c1-c1cc2nc(n1)NS(=O)(=O)c1cccc(c1)C(=O)N1CCN(Cc3ccccc3O)CC(C1)O2 (stereo not shown) [Compound 57] | – | – | < 1000 | +++ (+++ is >60%) |
| Cc1cccc(C)c1-c1cc2nc(n1)NS(=O)(=O)c1cccc(c1)C(=O)N1CCN(CCC(C)C)CC(C1)O2 (stereo not shown) [Compound 58] | – | – | < 1000 | +++ (+++ is >60%) |
| Cc1cccc(C)c1-c1cc2nc(n1)NS(=O)(=O)c1cccc(c1)C(=O)N1CCN(CC3CC4C=CC3C4)CC(C1)O2 (stereo not shown) [Compound 59] | – | – | < 1000 | +++ (+++ is >60%) |
| Cc1cccc(C)c1-c1cc2nc(n1)NS(=O)(=O)c1cccc(c1)C(=O)N1CCN(CCC3CCOCC3)CC(C1)O2 (stereo not shown) [Compound 60] | – | – | 3000 to 30000 | +++ (+++ is >60%) |
| Cc1cccc(C)c1-c1cc2nc(n1)NS(=O)(=O)c1cccc(c1)C(=O)N1CCN(Cc3sccc3Oc3ccccc3)CC(C1)O2 (stereo not shown) [Compound 61] | – | – | < 1000 | +++ (+++ is >60%) |
| Cc1cccc(C)c1-c1cc2nc(n1)NS(=O)(=O)c1cccc(c1)C(=O)N1CCN(CCC(C)CC(C)(C)C)CC(C1)O2 (stereo not shown) [Compound 62] | – | – | < 1000 | +++ (+++ is >60%) |
| Cc1cccc(C)c1-c1cc2nc(n1)NS(=O)(=O)c1cccc(c1)C(=O)N1CCN(C)CC(C1)O2 (stereo not shown) [Compound 63] | – | – | 3000 to 30000 | +++ (+++ is >60%) |
| Cc1cccc(C)c1-c1cc2nc(n1)NS(=O)(=O)c1cccc(c1)C(=O)N1CCN(Cc3ccccn3)CC(C1)O2 (stereo not shown) [Compound 64, 12-(2,6-Dimethylphenyl)-18-[(pyridin-2-yl)methyl]-15-oxa-8λ^6-thia-1,9,11,18,22-pentaazatetracyclo[14.4.1.13,7.110,14]tricosa-3(23),4,6,10(22),11,13-hexaene-2,8,8-trione] | – | – | 1000 to 3000 | ++ (++ is 30-60%) |
| Cc1cccc(C)c1-c1cc2nc(n1)NS(=O)(=O)c1cccc(c1)C(=O)N1CCN(CCCC(C)(C)C)CC(C1)O2 (stereo not shown) [Compound 65, 18-(4,4-Dimethylpentyl)-12-(2,6-dimethylphenyl)-15-oxa-8λ^6-thia-1,9,11,18,22-pentaazatetracyclo[14.4.1.13,7.110,14]tricosa-3(23),4,6,10(22),11,13-hexaene-2,8,8-trione] | – | – | < 1000 | ++ (++ is 30-60%) |
| Cc1cccc(C)c1-c1cc2nc(n1)NS(=O)(=O)c1cccc(c1)C(=O)N1CCN(Cc3cccnc3)C[C@H](C1)O2 [Compound 66, (36R)-16-(2,6-dimethylphenyl)-34-(pyridin-3-ylmethyl)-2-oxa-6-thia-7-aza-3(6,1)-diazepana-1(4,2)-pyrimidina-5(1,3)-benzenacycloheptaphan-4-one 6,6-dioxide] | – | – | 3000 to 30000 | ++ (++ is 30-60%) |
| Cc1cccc(C)c1-c1cc2nc(n1)NS(=O)(=O)c1cccc(c1)C(=O)N1CCN(Cc3ccccc3)C[C@H](C1)O2 [Compound 67, (16R)-18-Benzyl-12-(2,6-dimethylphenyl)-15-oxa-8λ^6-thia-1,9,11,18,22-pentaazatetracyclo[14.4.1.13,7.110,14]tricosa-3(23),4,6,10(22),11,13-hexaene-2,8,8-trione] | – | – | < 1000 | +++ (+++ is >60%) |
| Cc1cccc(C)c1-c1cc2nc(n1)NS(=O)(=O)c1cccc(c1)C(=O)N1CCN(Cc3ccccc3)C[C@@H](C1)O2 [Compound 68, (16S)-18-benzyl-12-(2,6-dimethylphenyl)-15-oxa-8λ^6-thia-1,9,11,18,22-pentaazatetracyclo[14.4.1.13,7.110,14]tricosa-3(23),4,6,10,12,14(22)-hexaene-2,8,8-trione] | – | – | 1000 to 3000 | + (+ is <300%) |
| CCN1CCN2C[C@@H](C1)Oc1cc(-c3c(C)cccc3C)nc(n1)NS(=O)(=O)c1cccc(c1)C2=O [Compound 74, (16R)-12-(2,6-Dimethylphenyl)-18-ethyl-15-oxa-8λ^6-thia-1,9,11,18,22-pentaazatetracyclo[14.4.1.13,7.110,14]tricosa-3(23),4,6,10,12,14(22)-hexaene-2,8,8-trione] | +++ (+++ is >600%) | 1000 to 3000 | – | – |
| Cc1cccc(C)c1-c1cc2nc(n1)NS(=O)(=O)c1cccc(c1)C(=O)N1CCN(C(C)C)C[C@H](C1)O2 [Compound 75, (16R)-12-(2,6-Dimethylphenyl)-18-(propan-2-yl)-15-oxa-8λ^6-thia-1,9,11,18,22-pentaazatetracyclo[14.4.1.13,7.110,14]tricosa-3,5,7(23),10,12,14(22)-hexaene-2,8,8-trione] | +++ (+++ is >600%) | < 1000 | – | – |
| Cc1cccc(C)c1-c1cc2nc(n1)NS(=O)(=O)c1cccc(c1)CN1CC(CNCC1=O)O2 (stereo not shown) [Compound 76, 12-(2,6-Dimethylphenyl)-15-oxa-8λ^6-thia-1,9,11,18,22-pentaazatetracyclo[14.4.1.13,7.110,14]tricosa-3(23),4,6,10,12,14(22)-hexaene-8,8,20-trione] | + (+ is <30%) | – | – | – |
